This note sets out measurements from patent publication US20240043386A1, “Modulators of the Cystic Fibrosis Transmembrane Conductance Regulator Protein and Methods of Use” (AbbVie Global Enterprises Ltd., priority 2021, published 2024).

Experiment [1] concerns the target T1, F508del/F508del CFTR (Homo sapiens, UniProt P13569, DEL508-508).
T1 construct: cells isolated from CF patients with the homozygous mutation; endogenous in cells; host or cells: primary human bronchial epithelial (hBE) cells from CF patients homozygous for F508del
Description: Trans-Epithelial Current Clamp (TECC) assay using primary human bronchial epithelial cells. It is filed as cell-based. The settings on record: for Emax (% Dual): maximum percent activity relative to positive control (co-corrector 0.15 μM + potentiator 0.45 μM = 100%), primary hBE cells F508del/F508del; for pEC50: primary hBE cells homozygous F508del/F508del, test C2 corrector with co-corrector and potentiator, 18-24 hours at 37° C., equivalent CFTR current (IEQ)/AUC. The source says:
A cell-based assay was developed using the primary human bronchial epithelial cells (hBE cells) with F508del/F508del CFTR and other mutations.
Primary human bronchial epithelial (hBE) cells from CFTR patients with homozygous F508del/F508del mutation were expanded from 1×10^6 to 250×10^6 cells (Neuberger, T et al., 2011, Methods Mol Biol 741:39-54). For this purpose, cells isolated from CF patients with the homozygous mutation, procured from the CF center tissue procurement and cell culture core at the Marsico Lung Institute at UNC (Randell), the Cystic Fibrosis translational research center at McGill University (University), and Rosalind Franklin University Medical School (RFUMS) were seeded onto 24 well Corning (Cat #3378) filter plates that were coated with 3T3 conditioned media and grown at an air-liquid interface for 35 days using an Ultroser® G supplemented differentiation media. All the primary human bronchial epithelial cells were collected in accordance with institutional review board approval protocols. Apical surface mucus was removed 72 hours before the experiment by incubating the apical surface of the cells for 30 minutes with 3 mM dithiothreitol (DTT) prepared in Dulbecco's phosphate buffered saline (DPBS) with Ca^2+ and Mg^2+. This was followed with aspiration of the mucus from the apical surface along with DPBS. The apical surface was re-washed with phosphate buffered saline (PBS) incubated for 30 minutes followed with aspiration. These hBE cells were then incubated with the desired concentrations of the test C2 corrector compounds along with co-corrector, 4-[(2R,4R)-4-({[1-(2,2-difluoro-1,3-benzodioxol-5-yl)cyclopropyl]carbonyl}amino)-7-(difluoromethoxy)-3,4-dihydro-2H-chromen-2-yl]benzoic acid and potentiator, (5-{3-amino-5-[4-(trifluoromethoxy)benzene-1-sulfonyl]pyridin-2-yl}-1,3,4-oxadiazol-2-yl)methanol, for 18-24 hours at 37° C., 5% CO2. The desired concentrations of the correctors and potentiator compounds were prepared from the 10 mM stocks in differentiation media and were always applied on the basolateral side of the epithelial cells. We also used an assay format where a fixed concentration of potentiator was added chronically along with the corrector compounds. This chronic treatment with the potentiator helped eliminate any interaction that might happen with CFTR modulators (correctors and potentiators) and thereby determined the true efficacy of the modulator combinations reflective of clinical relevance.
The assay uses a Transepithelial Current Clamp (TECC) (Vu, C B et al., 2017; J Med Chem 60:458-473) instrument that can measure the functionality of the mutated channel by measuring the equivalent CFTR current (IEQ) generated by the polarized primary epithelial cells. We used a TECC-24 with a 24-channel electrode manifold allowing for the simultaneous measurement of the transepithelial voltage, VT, and transepithelial resistance, RT, under current clamp conditions, from 24 filters using a 24 well Costar filter plate. The design of the filters in the 24 well filter plates was exactly the same as the design of an individual Transwell filter used in the classical Ussing Chamber with a surface area of 0.33 cm^2. Each measured VT values were corrected for the electrode offset potential measured using buffer alone in a separate plate, and each measured RT values were then corrected for the combined solution series and empty filter resistances. The corrected VT and RT values were then used to calculate the equivalent current, IEQ using Ohm's law (IEQ=VT/RT). The area under the curve (AUC) for the time period between the forskolin peak IEQ response and at the time of bumetanide addition was also calculated using a one-third trapezoid method, in addition to calculating the IEQ. The assay was run in a 24-well format and all 24-wells were measured at the same time point giving a higher throughput for this assay. […]

The target of experiment [2] is T2, F508delCFTR (Homo sapiens, UniProt P13569, DEL508-508).
T2 construct: expressed in transfected cells; host or cells: CFBE41o- human lung-derived epithelial cell line, doxycycline-inducible expression
T2 sequence (P13569 with tags, fused parts or gaps DEL508-508): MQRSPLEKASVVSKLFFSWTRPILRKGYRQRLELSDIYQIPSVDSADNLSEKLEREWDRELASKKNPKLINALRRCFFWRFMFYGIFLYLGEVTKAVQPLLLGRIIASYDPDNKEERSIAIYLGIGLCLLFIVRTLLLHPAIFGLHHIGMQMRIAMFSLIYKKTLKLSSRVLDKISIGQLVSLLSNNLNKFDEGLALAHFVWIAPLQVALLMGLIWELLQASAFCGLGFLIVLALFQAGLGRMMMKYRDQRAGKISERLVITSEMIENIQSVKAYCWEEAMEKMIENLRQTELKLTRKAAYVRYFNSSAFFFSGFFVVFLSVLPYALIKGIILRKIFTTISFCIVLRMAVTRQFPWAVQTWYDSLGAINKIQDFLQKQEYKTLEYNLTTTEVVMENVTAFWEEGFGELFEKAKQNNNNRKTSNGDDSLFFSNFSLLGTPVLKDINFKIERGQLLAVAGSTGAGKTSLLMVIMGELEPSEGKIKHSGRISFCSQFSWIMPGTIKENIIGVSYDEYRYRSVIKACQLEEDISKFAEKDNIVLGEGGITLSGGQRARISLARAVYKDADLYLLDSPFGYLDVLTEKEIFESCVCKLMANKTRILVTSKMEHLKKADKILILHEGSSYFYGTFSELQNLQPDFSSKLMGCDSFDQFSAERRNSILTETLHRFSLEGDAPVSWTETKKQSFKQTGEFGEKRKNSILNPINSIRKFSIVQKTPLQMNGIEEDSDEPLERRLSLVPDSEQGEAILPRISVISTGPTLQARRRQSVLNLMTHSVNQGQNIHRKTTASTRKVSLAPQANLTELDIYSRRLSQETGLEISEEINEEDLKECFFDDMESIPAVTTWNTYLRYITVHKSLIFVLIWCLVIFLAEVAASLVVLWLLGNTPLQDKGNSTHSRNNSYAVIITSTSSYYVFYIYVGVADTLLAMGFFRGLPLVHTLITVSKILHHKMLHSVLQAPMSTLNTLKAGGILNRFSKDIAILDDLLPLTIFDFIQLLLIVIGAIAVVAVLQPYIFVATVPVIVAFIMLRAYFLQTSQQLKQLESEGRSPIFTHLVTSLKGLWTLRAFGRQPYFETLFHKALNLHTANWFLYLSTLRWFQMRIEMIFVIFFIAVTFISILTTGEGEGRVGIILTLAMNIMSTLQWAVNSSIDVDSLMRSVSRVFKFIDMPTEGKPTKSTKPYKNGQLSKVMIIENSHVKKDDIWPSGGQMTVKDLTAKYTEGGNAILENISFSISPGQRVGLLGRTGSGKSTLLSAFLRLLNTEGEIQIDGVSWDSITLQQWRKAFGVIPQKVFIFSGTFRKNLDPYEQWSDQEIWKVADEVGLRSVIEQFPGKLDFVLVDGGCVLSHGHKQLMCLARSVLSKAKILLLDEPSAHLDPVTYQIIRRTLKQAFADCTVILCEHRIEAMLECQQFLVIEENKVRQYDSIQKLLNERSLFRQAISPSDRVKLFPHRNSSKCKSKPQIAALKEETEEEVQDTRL
Nature of the experiment: Cell Surface Expression-Horse Radish Peroxidase (CSE-HRP) assay in CFBE41o-F508delCFTR-HRP cells. It counts as cell-based. The settings on record: for pEC50: CFBE41o-F508delCFTR-HRP cells, 18-24 hours at 33° C., luminescence; for Maximum % activity (with co-corrector) / Maximum % activity (without co-corrector): normalized to on-plate positive control corrector (2 μM). As for the experimental part:
A cellular assay for measuring the F508delCFTR cell surface expression after correction with test compounds either without or with a co-corrector (2 μM of 3-[(2R,4R)-4-({[1-(2,2-difluoro-1,3-benzodioxol-5-yl)cyclopropyl]carbonyl}amino)-7-methoxy-3,4-dihydro-2H-chromen-2-yl]benzoic acid), was developed in human lung derived epithelial cell line (CFBE4lo-) (Veit G et al, (2012) Mol Biol Cell. 23(21): 4188-4202). The development was achieved by expressing the F508delCFTR mutation along with a horseradish peroxidase (HRP) in the fourth exofacial loop, and then measuring the HRP activity using luminescence readout from these cells, CFBE4lo-F508delCFTR-HRP, that were incubated overnight with the test corrector compounds, either without or with the co-corrector. For this primary assay, the CFBE4lo-F508delCFTR-HRP cells were plated in 384-well plates (Greiner Bio-one; Cat 781080) at 4,000 cells/well along with 0.5 μg/mL doxycycline to induce the F508delCFTR-RP expression and further incubated at 37° C., 5% CO2 for 68-72 hours. The test compounds were then added either without or with a co-corrector at the required concentrations and further incubated for 18-24 hours at 33° C. The highest concentration tested was 20 μM or 30 μM (GI-1 to GIII-36) with an 8-point concentration response curve using a 3-fold dilution in both the test compound without or with the co-corrector. Three replicate plates were run to determine one EC50. All plates contained negative controls (dimethyl sulfoxide, DMSO) and positive control (2 μM or 3 μM (GI-1 to GIII-36) of 3-[(2R,4R)-4-({[1-(2,2-difluoro-1,3-benzodioxol-5-yl)cyclopropyl]carbonyl}amino)-7-methoxy-3,4-dihydro-2H-chromen-2-yl]benzoic acid) as well as on-plate concentration response of the positive control. Post incubation, the plates were washed 5× times with Dulbecco's phosphate buffered saline (DPBS), followed by the addition of the HRP substrate, luminol (50 μL), and measuring the HRP activity using luminescence readout on EnVision® Multilabel Plate Reader (Perkin Elmer; product number 2104-0010). The raw counts from the experiment were analyzed using Accelrys® Assay Explorer v3.3.
Z′ greater than 0.5 was used as passing quality control criteria for the plates. The Z′ is defined as:
1−[3*SDPositive Control+3*SDNegative Control/Absolute (MeanPositive Control−MeanNegative Control)]
The % activity measured at each of the 8 test concentrations of the test compound added either without or with a co-corrector (2 μM or 3 μM (GI-1 to GIII-36) of 3-[(2R,4R)-4-({[1-(2,2-difluoro-1,3-benzodioxol-5-yl)cyclopropyl]carbonyl}amino)-7-methoxy-3,4-dihydro-2H-chromen-2-yl]benzoic acid) was normalized to the on-plate positive control using the following formulae:
% activity (Test compound without co-corrector)=[(test compound without co-corrector response−DMSO response)/(positive control response−DMSO response)]*100
% activity (Test compound with co-corrector)=[(test compound with co-corrector response−DMSO response)/(positive control response−DMSO response)]*100
The maximum % activity achieved for the test compound either without or with a co-corrector at any tested concentration is presented in Table 3 along with the respective EC50's calculated using the following general sigmoidal curve with variable Hill slope equation (described as Model 42 in the Accelrys® Assay Explorer v3.3 software):
General sigmoidal curve with concentration, response, top, bottom, EC50 and Hill slope. This model describes a sigmoidal curve with an adjustable baseline, a. The equation can be used to fit curves where response is either increasing or decreasing with respect to the independent variable, “x”.

[3] abbreviates: with co-corrector (2 μM), read-out: EC50 (with co-corrector).
Where [4] appears, read: without co-corrector, read-out: EC50 (without co-corrector).

pEC50: −log10 of the molar value. Like-named read-outs stand apart in the source and are kept apart here.

T1 sequence (P13569 with tags, fused parts or gaps DEL508-508): as above

What is called pEC50 is the EC50 on a negative log10 scale, so that one unit is a factor of ten. On to `COc1ccc(C)cc1[C@@]1(C(=O)NS(=O)(=O)c2cccc3nc(C)ccc23)C[C@H]1c1cccnc1OC` (racemic) [Example 40, rac-(1r,2s)-1-(2-methoxy-5-methylphenyl)-2-(2-methoxypyridin-3-yl)-N-(2-methylquinoline-5-sulfonyl)cyclopropane-1-carboxamide], for which, in experiment [1], the “Emax (% Dual)” value was determined as 328 % Dual. In addition, the pEC50 is 7.71 in experiment [1], 6.13 in experiment [2] (setting [3]) and 5.81 in experiment [2] (setting [4]). Besides, the “Maximum % activity (with co-corrector)” value in experiment [2] (with co-corrector (2 μM)) stood at 934%. Also, the “Maximum % activity (without co-corrector)” value in experiment [2] (without co-corrector) is reported as 448%.
Consider `COc1cncc([C@@H]2C[C@]2(C(=O)NS(=O)(=O)c2cccc3nc(C)ccc23)c2cc(C)ccc2OC)c1` (racemic) [Example 41, rac-(1r,2s)-1-(2-methoxy-5-methylphenyl)-2-(5-methoxypyridin-3-yl)-N-(2-methylquinoline-5-sulfonyl)cyclopropane-1-carboxamide], for which the “Emax (% Dual)” value in experiment [1] is 244 % Dual. Besides, the pEC50 in experiment [1] was 6.96; in experiment [2] (setting [3]) it was 5.75; in experiment [2] (setting [4]) it was 5.53. In addition, the “Maximum % activity (without co-corrector)” value in experiment [2] (without co-corrector) stood at 497%.
For `COc1ccc(C)cc1[C@@]1(C(=O)NS(=O)(=O)c2cccc3nc(C)ccc23)C[C@H]1c1cncc(F)c1` (racemic) [Example 42, rac-(1r,2s)-2-(5-fluoropyridin-3-yl)-1-(2-methoxy-5-methylphenyl)-N-(2-methylquinoline-5-sulfonyl)cyclopropane-1-carboxamide], the “Emax (% Dual)” value in experiment [1] is reported as 127 % Dual. Also, the negative logarithm of the EC50 (pEC50) was 6.74 in experiment [1], 5.94 in experiment [2] (setting [3]) and 5.73 in experiment [2] (setting [4]). The “Maximum % activity (without co-corrector)” value in experiment [2] (without co-corrector) was found to be 690%.
For `COc1ccc(C)cc1[C@@]1(C(=O)NS(=O)(=O)c2cccc3nc(C)ccc23)C[C@H]1c1cnc(C(C)C)cn1` (racemic) [Example 61, rac-(1r,2r)-1-(2-methoxy-5-methylphenyl)-N-(2-methylquinoline-5-sulfonyl)-2-[5-(propan-2-yl)pyrazin-2-yl]cyclopropane-1-carboxamide], the “Emax (% Dual)” value in experiment [1] turned out to be 281 % Dual. Also, the pEC50 is 7.13 in experiment [1], 5.95 in experiment [2] (setting [3]) and 5.61 in experiment [2] (setting [4]). Further, the “Maximum % activity (without co-corrector)” value in experiment [2] (without co-corrector) is 700%.
Regarding `CCOc1cnc([C@@H]2C[C@]2(C(=O)NS(=O)(=O)c2cccc3nc(C)ccc23)c2cc(C)ccc2OC)cn1` (racemic) [Example 62, rac-(1r,2r)-2-(5-ethoxypyrazin-2-yl)-1-(2-methoxy-5-methylphenyl)-N-(2-methylquinoline-5-sulfonyl)cyclopropane-1-carboxamide], the “Emax (% Dual)” value in experiment [1] is given as 329 % Dual. For the same compound, the negative logarithm of the EC50 (pEC50) in experiment [1] is 6.58; in experiment [2] (setting [3]) it was 6.32; in experiment [2] (setting [4]), 6.00. In experiment [2] (without co-corrector), the “Maximum % activity (without co-corrector)” value came out at 483%.
In the same order, the values of `COc1ccc(C)cc1[C@@]1(C(=O)NS(=O)(=O)c2cccc3nc(C)ccc23)C[C@H]1c1ccc(C(C)C)nc1OC` (racemic) [Example 78, rac-(1r,2s)-1-(2-methoxy-5-methylphenyl)-2-[2-methoxy-6-(propan-2-yl)pyridin-3-yl]-N-(2-methylquinoline-5-sulfonyl)cyclopropane-1-carboxamide] are 282 % Dual, 7.52, 6.44, 6.08 and 825%.
For the compound `COc1ccc([C@@H]2C[C@]2(C(=O)NS(=O)(=O)c2cccc3nc(C)ccc23)c2cc(C)ccc2OC)c(OC)n1` (racemic) [Example 79, rac-(1r,2s)-2-(2,6-dimethoxypyridin-3-yl)-1-(2-methoxy-5-methylphenyl)-N-(2-methylquinoline-5-sulfonyl)cyclopropane-1-carboxamide], the “Emax (% Dual)” value in experiment [1] was determined as 205 % Dual. Besides, the negative logarithm of the EC50 (pEC50) in experiment [1] is 7.67; in experiment [2] (setting [3]), 6.77; in experiment [2] (setting [4]), 6.33. Besides, the “Maximum % activity (with co-corrector)” value in experiment [2] (with co-corrector (2 μM)) was found to be 860%. Further, in experiment [2] (without co-corrector), the “Maximum % activity (without co-corrector)” value is listed as 388%.
